Data from patent US20120034242A1, “CYTOKINE-EXPRESSING CELLULAR VACCINE COMBINATIONS” (BIOSANTE PHARMACEUTICALS, INC., priority 2003, published 2012).

Legend:
Format in all cases: in vivo, mice
[1] = system: B16 tumor; test: B16 melanoma model: B16-GM vaccine plus docetaxel
Experimental: FIG. 8A illustrates the results of a study in the B16F10 melanoma model wherein the effect of 3 IV injections of docetaxel (total dose 18 mg/kg) administered on days 5, 9, and 13 was evaluated with respect to the percentage of mice that survived.
FIG. 8B illustrates the study carried out to generate the data shown in FIGS. 8C and D. The study was performed in the B16F10 melanoma model and compared the efficacy of one cycle of a GM-CSF secreting tumor cell vaccine administration combined with one cycle of Taxotere administration to three cycles of vaccine plus three cycles of taxotere.
FIGS. 8C and 8D illustrate the results of a study in the B16F10 melanoma model (carried out as described in FIG. 8B) wherein the effect of a cytokine-expressing cellular vaccine was evaluated in combination with docetaxel (total dose 18 mg/kg) administered on days 5, 9, and 13. Administration of docetaxel given between bi-weekly vaccinations (three vaccinations total; three cycles) increased the median survival of B16 tumor-bearing mice from 31 days to 52 days when compared to three B16-GM vaccinations alone. […]
The combination of docetaxel and a GM-CSF-secreting B16F10 tumor cell (B16-GM) vaccine was evaluated in the B16 melanoma model. […]

[2] = system: ovalbumin-specific TCR transgenic T cells (OT-1); test: B16 ovalbumin model: tracking of ovalbumin-specific TCR transgenic T cells (OT-1); conditions: data not shown
Description: B16.ova and B16.GM.ova tumors are B16 cells or B16 cells expressing GM-CSF that were modified to express membrane bound ovalbumin. Ovalbumin acts as a surrogate tumor associated antigen on the tumor cells used for challenge as well as on the vaccine cells. Ovalbumin-specific T cells are used to track “tumor specific” T cell responses in the presence or absence of cells expressing GM-CSF (B16.GM-ova) alone or in combination with another cancer therapeutic agent. An antibody specifically recognizing the T-cell receptor of the ovalbumin specific T-cells is used to follow these “tumor-specific” T-cells. This antibody can be used to monitor the expansion of these tumor-specific T-cells and their activation status following various vaccination regiments. In one exemplary experimental approach, mice received via adoptive transfer ovalbumin-specific T-cells on day −2, are challenged with B16F10.ova on day 0, are vaccinated with B16F10.GM-ova on day 3 and then treated with at least one additional cancer therapeutic agent such as taxotere on day 5 and 9 (6 mg/kg), followed by monitoring of OVA-specific T cells at various time points after vaccination.

[3] = system: B16F10; test: B16F10 model: B16-GM vaccine plus Celebrex; conditions: single agent; preliminary results
Experimental: FIGS. 9A and 9B illustrate the results of a study in the B16F10 melanoma model wherein the effect of a cytokine-expressing cellular vaccine was evaluated in combination with Celebrex (Celecoxib: 50 mg/kg/day in the feed starting on Day −7). Mice were challenged on Day 0 with 1×10^5 live B16F10 cells at a dorsal location and were vaccinated on Day 3 with 1×10^6 irradiated dB16gmtd cells at a ventral location.

Row | Structure (SMILES) | inhibiting B16 tumor growth ([1]; monotherapy, three IV injections, total dose 18 mg/kg) | Median Survival ([1]; one cycle: vaccine three days after challenge, docetaxel IV days 5, 9, 13 (total 18 mg/kg)) | survival of ovalbumin-specific TCR transgenic T cells (OT-1) [2] | effect on B16F10 tumor size and overall survival [3]
1 | CC(=O)O[C@@]12CO[C@@H]1C[C@H](O)[C@@]1(C)C(=O)[C@H](O)C3=C(C)[C@@H](OC(=O)[C@H](O)[C@@H](NC(=O)OC(C)(C)C)c4ccccc4)C[C@@](O)([C@@H](OC(=O)c4ccccc4)[C@H]21)C3(C)C [docetaxel] | ineffective | 24 days | prolongs | –
2 | Cc1ccc(-c2cc(C(F)(F)F)nn2-c2ccc(S(N)(=O)=O)cc2)cc1 [Celebrex, Celecoxib] | – | – | – | no effect
